6 molecules from US20110218103A1, “Fluoroalkyl-substituted 2-amidobenzimidazoles” (BAYER CROPSCIENCE AG, priority 2010, published 2011) can be followed below.

Assay in all cases: Drought stress test on crop plants, spray application in greenhouse, visual damage rating
What all share (type): in vivo

In one assay the test system is Hordeum vulgare (HORVS). The settings on record: mean of three results. How it is done:
Seeds of monocotyledonous and dicotyledonous crop plants were placed in sandy loam in wood-fiber pots, covered with soil and cultivated in a greenhouse under good growth conditions. The test plants were treated at the early leaf stage (BBCH10-BBCH13). To ensure uniform water supply before commencement of stress, the potted plants were supplied with the maximum amount of water immediately beforehand by dam irrigation and, after application, transferred in plastic inserts in order to prevent subsequent, excessively rapid drying. The inventive compounds, formulated in the form of wettable powders (WP), wettable granules (WG), suspension concentrates (SC) or emulsion concentrates (EC), were sprayed onto the green parts of the plants as an aqueous suspension at an equivalent water application rate of 600 l/ha with addition of 0.2% wetting agent (agrotin). Substance application was followed immediately by stress treatment of the plants (cold or drought stress). For cold stress treatment, the plants were kept under the following controlled conditions: Drought stress was induced by gradual drying out under the following conditions: “day”: 14 hours with illumination at 26° C. “night”: 10 hours without illumination at 18° C. The duration of the respective stress phases was guided mainly by the state of the untreated, stressed control plants and thus varies from crop to crop. It was ended (by re-irrigating or transfer to a greenhouse with good growth conditions) as soon as irreversible damage is observed on the untreated, stressed control plants. In the case of dicotyledonous crops, for example oilseed rape and soya, the duration of the drought stress phase was between 3 and 5 days, in the case of monocotyledonous crops, for example wheat, barley or corn, between 6 and 10 days. The duration of the cold stress phase varied between 12 and 14 days. The end of the stress phase was followed by an approx. 5-7-day recovery phase, during which the plants were once again kept under good growth conditions in a greenhouse. In order to rule out any influence of the effects observed by any fungicidal action of the test compounds, it was additionally ensured that the tests proceed without fungal infection and without infection pressure. After the recovery phase had ended, the intensities of damage were rated visually compared to untreated, unstressed controls of the same age (in the case of drought stress) or the same growth stage (in the case of cold stress). The intensity of damage was first assessed as a percentage (100%=plants have died, 0%=like control plants). These values were then used to calculate the efficacy of the test compounds (=percentage reduction in the intensity of damage as a result of substance application) by the following formula: [formula] EF: efficacy (%) DVus: damage value of the untreated, stressed control DVts: damage value of the plants treated with test compound The tables below list mean values in each case from three results of the same test. Effects of selected compounds of the formula (I) under drought stress: HORVS=Hordeum vulgare

For a further assay, the system named is Brassica napus (BRSNS). The settings on record: mean of three results. How it is done:
Seeds of monocotyledonous and dicotyledonous crop plants were placed in sandy loam in wood-fiber pots, covered with soil and cultivated in a greenhouse under good growth conditions. The test plants were treated at the early leaf stage (BBCH10-BBCH13). To ensure uniform water supply before commencement of stress, the potted plants were supplied with the maximum amount of water immediately beforehand by dam irrigation and, after application, transferred in plastic inserts in order to prevent subsequent, excessively rapid drying. The inventive compounds, formulated in the form of wettable powders (WP), wettable granules (WG), suspension concentrates (SC) or emulsion concentrates (EC), were sprayed onto the green parts of the plants as an aqueous suspension at an equivalent water application rate of 600 l/ha with addition of 0.2% wetting agent (agrotin). Substance application was followed immediately by stress treatment of the plants (cold or drought stress). For cold stress treatment, the plants were kept under the following controlled conditions: Drought stress was induced by gradual drying out under the following conditions: “day”: 14 hours with illumination at 26° C. “night”: 10 hours without illumination at 18° C. The duration of the respective stress phases was guided mainly by the state of the untreated, stressed control plants and thus varies from crop to crop. It was ended (by re-irrigating or transfer to a greenhouse with good growth conditions) as soon as irreversible damage is observed on the untreated, stressed control plants. In the case of dicotyledonous crops, for example oilseed rape and soya, the duration of the drought stress phase was between 3 and 5 days, in the case of monocotyledonous crops, for example wheat, barley or corn, between 6 and 10 days. The duration of the cold stress phase varied between 12 and 14 days. The end of the stress phase was followed by an approx. 5-7-day recovery phase, during which the plants were once again kept under good growth conditions in a greenhouse. In order to rule out any influence of the effects observed by any fungicidal action of the test compounds, it was additionally ensured that the tests proceed without fungal infection and without infection pressure. After the recovery phase had ended, the intensities of damage were rated visually compared to untreated, unstressed controls of the same age (in the case of drought stress) or the same growth stage (in the case of cold stress). The intensity of damage was first assessed as a percentage (100%=plants have died, 0%=like control plants). These values were then used to calculate the efficacy of the test compounds (=percentage reduction in the intensity of damage as a result of substance application) by the following formula: [formula] EF: efficacy (%) DVus: damage value of the untreated, stressed control DVts: damage value of the plants treated with test compound The tables below list mean values in each case from three results of the same test. Effects of selected compounds of the formula (I) under drought stress: BRSNS=Brassica napus

The subject of assay [1] is Triticum aestivum (TRZAS). The settings on record: 25 g/ha, mean of three results. Here is the method:
Seeds of monocotyledonous and dicotyledonous crop plants were placed in sandy loam in wood-fiber pots, covered with soil and cultivated in a greenhouse under good growth conditions. The test plants were treated at the early leaf stage (BBCH10-BBCH13). To ensure uniform water supply before commencement of stress, the potted plants were supplied with the maximum amount of water immediately beforehand by dam irrigation and, after application, transferred in plastic inserts in order to prevent subsequent, excessively rapid drying. The inventive compounds, formulated in the form of wettable powders (WP), wettable granules (WG), suspension concentrates (SC) or emulsion concentrates (EC), were sprayed onto the green parts of the plants as an aqueous suspension at an equivalent water application rate of 600 l/ha with addition of 0.2% wetting agent (agrotin). Substance application was followed immediately by stress treatment of the plants (cold or drought stress). For cold stress treatment, the plants were kept under the following controlled conditions: Drought stress was induced by gradual drying out under the following conditions: “day”: 14 hours with illumination at 26° C. “night”: 10 hours without illumination at 18° C. The duration of the respective stress phases was guided mainly by the state of the untreated, stressed control plants and thus varies from crop to crop. It was ended (by re-irrigating or transfer to a greenhouse with good growth conditions) as soon as irreversible damage is observed on the untreated, stressed control plants. In the case of dicotyledonous crops, for example oilseed rape and soya, the duration of the drought stress phase was between 3 and 5 days, in the case of monocotyledonous crops, for example wheat, barley or corn, between 6 and 10 days. The duration of the cold stress phase varied between 12 and 14 days. The end of the stress phase was followed by an approx. 5-7-day recovery phase, during which the plants were once again kept under good growth conditions in a greenhouse. In order to rule out any influence of the effects observed by any fungicidal action of the test compounds, it was additionally ensured that the tests proceed without fungal infection and without infection pressure. After the recovery phase had ended, the intensities of damage were rated visually compared to untreated, unstressed controls of the same age (in the case of drought stress) or the same growth stage (in the case of cold stress). The intensity of damage was first assessed as a percentage (100%=plants have died, 0%=like control plants). These values were then used to calculate the efficacy of the test compounds (=percentage reduction in the intensity of damage as a result of substance application) by the following formula: [formula] EF: efficacy (%) DVus: damage value of the untreated, stressed control DVts: damage value of the plants treated with test compound The tables below list mean values in each case from three results of the same test. Effects of selected compounds of the formula (I) under drought stress: TRZAS=Triticum aestivum

A further assay concerns Zea mays (ZEAMX). The note with it: 25 g/ha, mean of three results. Here is the method: Seeds of monocotyledonous and dicotyledonous crop plants were placed in sandy loam in wood-fiber pots, covered with soil and cultivated in a greenhouse under good growth conditions. The test plants were treated at the early leaf stage (BBCH10-BBCH13). To ensure uniform water supply before commencement of stress, the potted plants were supplied with the maximum amount of water immediately beforehand by dam irrigation and, after application, transferred in plastic inserts in order to prevent subsequent, excessively rapid drying. The inventive compounds, formulated in the form of wettable powders (WP), wettable granules (WG), suspension concentrates (SC) or emulsion concentrates (EC), were sprayed onto the green parts of the plants as an aqueous suspension at an equivalent water application rate of 600 l/ha with addition of 0.2% wetting agent (agrotin). Substance application was followed immediately by stress treatment of the plants (cold or drought stress). For cold stress treatment, the plants were kept under the following controlled conditions: Drought stress was induced by gradual drying out under the following conditions: “day”: 14 hours with illumination at 26° C. “night”: 10 hours without illumination at 18° C. The duration of the respective stress phases was guided mainly by the state of the untreated, stressed control plants and thus varies from crop to crop. It was ended (by re-irrigating or transfer to a greenhouse with good growth conditions) as soon as irreversible damage is observed on the untreated, stressed control plants. In the case of dicotyledonous crops, for example oilseed rape and soya, the duration of the drought stress phase was between 3 and 5 days, in the case of monocotyledonous crops, for example wheat, barley or corn, between 6 and 10 days. The duration of the cold stress phase varied between 12 and 14 days. The end of the stress phase was followed by an approx. 5-7-day recovery phase, during which the plants were once again kept under good growth conditions in a greenhouse. In order to rule out any influence of the effects observed by any fungicidal action of the test compounds, it was additionally ensured that the tests proceed without fungal infection and without infection pressure. After the recovery phase had ended, the intensities of damage were rated visually compared to untreated, unstressed controls of the same age (in the case of drought stress) or the same growth stage (in the case of cold stress). The intensity of damage was first assessed as a percentage (100%=plants have died, 0%=like control plants). These values were then used to calculate the efficacy of the test compounds (=percentage reduction in the intensity of damage as a result of substance application) by the following formula: [formula] EF: efficacy (%) DVus: damage value of the untreated, stressed control DVts: damage value of the plants treated with test compound The tables below list mean values in each case from three results of the same test. Effects of selected compounds of the formula (I) under drought stress: ZEAMX=Zea mays

Consider `NC(=O)c1cccc2[nH]c(C(F)(F)Cl)nc12` [1-1, 2-[chloro(difluoro)methyl]-1H-benzimidazole-4-carboxamide], for which the “EF (HORVS), efficacy = percentage reduction in the intensity of damage” value with Hordeum vulgare (HORVS) (100 g/ha) is recorded as greater than 5%.

In the case of `CC(C)NC(=O)c1cccc2[nH]c(C(F)(F)F)nc12` [1-21], the “EF (HORVS), efficacy = percentage reduction in the intensity of damage” value with Hordeum vulgare (HORVS) (25 g/ha) is recorded as greater than 5%.

On to `Cn1c(C(F)(F)F)nc2c(C(N)=O)cccc21` [1-27], for which, in the assay with Hordeum vulgare (HORVS) (100 g/ha), the “EF (HORVS), efficacy = percentage reduction in the intensity of damage” value is on record as greater than 5%.

Turning to `NC(=O)c1cc(Cl)cc2[nH]c(C(F)F)nc12` [2-7], the “EF (HORVS), efficacy = percentage reduction in the intensity of damage” value in the assay with Hordeum vulgare (HORVS) (25 g/ha) is on record as greater than 5%. In addition, in the assay with Brassica napus (BRSNS) (25 g/ha), the “EF (BRSNS), efficacy = percentage reduction in the intensity of damage” value is given as greater than 5%. For the same molecule, the “EF (TRZAS), efficacy = percentage reduction in the intensity of damage” value in assay [1] is recorded as greater than 5%.

For `NC(=O)c1cccc2[nH]c(C(F)C(F)(F)F)nc12` (stereo not drawn) [1-8], in the assay on Hordeum vulgare (HORVS) (50 g/ha), the “EF (HORVS), efficacy = percentage reduction in the intensity of damage” value is recorded as greater than 5%. Besides, the “EF (BRSNS), efficacy = percentage reduction in the intensity of damage” value in the assay on Brassica napus (BRSNS) (50 g/ha) is reported as greater than 5%. Further, the “EF (ZEAMX), efficacy = percentage reduction in the intensity of damage” value with Zea mays (ZEAMX) is reported as greater than 5%.

On to `Cc1cc(C(N)=O)c2nc(C(F)F)[nH]c2c1` [4-7], for which the “EF (HORVS), efficacy = percentage reduction in the intensity of damage” value with Hordeum vulgare (HORVS) (25 g/ha) is on record as greater than 5%. Besides, the “EF (BRSNS), efficacy = percentage reduction in the intensity of damage” value in the assay with Brassica napus (BRSNS) (25 g/ha) is greater than 5%. Moreover, in assay [1], the “EF (TRZAS), efficacy = percentage reduction in the intensity of damage” value is greater than 5%.
